Measurements published in patent US20110201629A1, “CYCLOHEXYL AMIDE DERIVATIVES AS CRF RECEPTOR ANTAGONISTS” (priority 2010, published 2011).
Counter-ions that a name gives are not always drawn.

Columns and labels:
[1] = biological target: T1, CRF-1 (UniProt P34998); assay: CRF-1 receptor antagonism, HTRF cAMP assay in CHO cells; format: cell-based, human; conditions: inhibition of CRF induced cAMP response in CHO cells, EC50 concentration of CRF
T1 sequence (P34998 1-415): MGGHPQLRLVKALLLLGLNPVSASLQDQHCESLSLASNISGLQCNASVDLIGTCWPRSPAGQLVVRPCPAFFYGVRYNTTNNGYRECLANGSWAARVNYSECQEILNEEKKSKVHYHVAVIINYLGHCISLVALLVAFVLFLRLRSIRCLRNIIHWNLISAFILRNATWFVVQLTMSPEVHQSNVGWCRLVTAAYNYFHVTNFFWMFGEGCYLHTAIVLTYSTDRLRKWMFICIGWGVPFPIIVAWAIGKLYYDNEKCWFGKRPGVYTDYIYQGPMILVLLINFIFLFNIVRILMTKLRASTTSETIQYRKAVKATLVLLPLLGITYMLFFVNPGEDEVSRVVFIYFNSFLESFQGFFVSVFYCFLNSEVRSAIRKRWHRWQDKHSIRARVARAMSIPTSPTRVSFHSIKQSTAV
Experimental: (§1) The CRF-1 and CRF-2 receptor antagonistic activity of the agents of the invention has been determined in vitro in the following assay:
(§2) Chinese hamster ovary (CHO) cells expressing either the human or rat recombinant CRF-1 or human CRF-2α (Chen et al, Proc Natl Acad Sci USA 90, 8967-8971, 1993; Liaw et al, Endocrinology 137, 72-77, 1996) are propagated in Dulbecco's modified Eagle medium supplemented with 10% foetal calf serum, non-essential amino acids, 100 U/ml penicillin, 100 mg/l streptomycin and 1 g/l geneticin. CHO cells expressing the rat CRF-2β receptor (Wu et al, Endocrinology 148, 1675-1687, 2007) are propagated in HAM's-F12 Glutamax supplemented with 10% foetal calf serum, 100 IU/ml penicillin, 100 mg/l streptomycin, 600 μg/ml hygromycin, 10 μg/ml blasticidin and induced with 1 μg/ml of tetracyclin for 24 hours prior to experimentation. For cyclic AMP determinations the Homogeneous Time-Resolved Fluoresce (HTRF) cAMP dynamic 2 kit (Cisbio International, France) was used as per manufacturers' instructions. CHO cells, previously cryopreserved at 3×10^6 viable cells per ml of cell recovery media (Cat no. 12648-010, Invitrogen), were thawed, centrifuged for 7 mins at 1200 rpm and resuspended in serum free media to give a concentration of 0.5×10^6 cells per/ml. Compounds of the invention, prepared in DMSO, and subsequently diluted 50 fold in assay buffer (1× Hanks balanced salt solution, 0.2% (w/v) bovine serum albumin, 1.7 mM isobutylmethylxanthine and 10 mM Hepes, pH7.4) were then added onto the 384 well low volume black assay plate (Corning Inc, US, Cat. 3676). 2000 cells/well were then added to the assay plate further diluting the compound 2 fold and then the plate was incubated for 15 mins at room temperature. Following incubation, buffer containing a 5 times final concentration of agonist, typically r/h CRF is added to the plate and incubated for 30 min at room temperature. Finally, d2 dye labeled cAMP and cryptate labeled anti-cAMP antibody, both made in lysis buffer, are added to the plate followed by a settling period of 1 hour at room temperature. During the settling period cAMP produced by the cells competes with the d2 labelled cAMP for the anti-cAMP cryptate. The plate is read on the Pherastar (BMG, Germany). Increasing levels of endogenous cAMP produced by cells can be followed by a decrease of FRET fluorescent signal and vice versa. Values represented by a change in arbitrary fluorescence units are converted into cAMP concentrations by use of a standard curve, the reagents for which are supplied with the kit. Antagonist dose response curves (1 nM-31.6 μM) are constructed and tested in the presence of an EC50 concentration of CRF relevant to the receptor (hCRF-1=3 nM, hCRF-2α=2 nM, rCRF-1=1 nM and rCRF-2β=0.1 nM). IC50 values of antagonists are calculated by fitting the percent inhibition of CRF induced cAMP response by increasing concentrations of the antagonists. The fit is performed using the nonlinear logistic function of the Activitybase software package v 5.4.5.27 (IDBS, UK).

[2] = biological target: T2, CRF-2 (UniProt Q13324); assay: CRF-2 receptor antagonism, HTRF cAMP assay in CHO cells; format: cell-based, human; conditions: Biological data Table 2; inhibition of CRF induced cAMP response in CHO cells, EC50 concentration of CRF
T2 sequence (Q13324 1-411): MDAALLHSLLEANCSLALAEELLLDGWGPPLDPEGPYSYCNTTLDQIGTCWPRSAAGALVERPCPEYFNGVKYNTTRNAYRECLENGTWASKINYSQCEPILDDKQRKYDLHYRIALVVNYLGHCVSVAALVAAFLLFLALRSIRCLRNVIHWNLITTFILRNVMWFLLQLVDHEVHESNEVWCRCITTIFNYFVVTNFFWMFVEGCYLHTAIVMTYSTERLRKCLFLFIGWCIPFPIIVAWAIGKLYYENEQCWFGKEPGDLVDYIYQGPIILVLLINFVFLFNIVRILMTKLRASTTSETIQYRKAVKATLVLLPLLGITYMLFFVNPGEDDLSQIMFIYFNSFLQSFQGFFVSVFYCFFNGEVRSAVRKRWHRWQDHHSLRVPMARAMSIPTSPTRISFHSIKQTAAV
Experimental: as §1, §2

Row | IC50 ([1]; Biological data Table 2) | IC50 [2] | IC50 ([1]; Biological data Table 1) | SMILES
1 |  |  | 205 nM | O=C(N[C@H]1CC[C@H](CN2C(=O)Cc3cc(Cl)ccc32)CC1)c1cc(C(F)(F)F)ccc1Cl [Example 3.1, Trans-2-Chloro-N-[4-(5-chloro-2-oxo-2,3-dihydro-indol-1-ylmethyl)-cyclohexyl]-5-trifluoromethyl-benzamide]
2 |  |  | 28 nM | CC1(C)C(=O)N(C[C@H]2CC[C@H](NC(=O)c3cc(C(F)(F)F)ccc3Cl)CC2)c2ccc(F)cc21 [Example 3.3, Trans-2-Chloro-N-[4-(5-fluoro-3,3-dimethyl-2-oxo-2,3-dihydro-indol-1-ylmethyl)-cyclohexyl]-5-trifluoromethyl-benzamide]
3 |  |  | 145 nM | Cn1c(=O)n(C[C@H]2CC[C@H](NC(=O)c3cc(C(F)(F)F)ccc3Cl)CC2)c2ncccc21 [Example 3.6, Trans-2-Chloro-N-[4-(1-methyl-2-oxo-1,2-dihydro-imidazo[4,5-b]pyridin-3-ylmethyl)-cyclohexyl]-5-trifluoromethyl-benzamide]
4 |  |  | 91 nM | O=C(N[C@H]1CC[C@H](Cn2c(=O)[nH]c3ccccc32)CC1)c1cc(C(F)(F)F)ccc1Cl [Example 3.7, Trans-2-Chloro-N-[4-(2-oxo-2,3-dihydro-bcnzoimidazol-1-ylmethyl)-cyclohexyl]-5-trifluoromethyl-benzamide]
5 |  |  | 37 nM | Cn1c(=O)n(C[C@H]2CC[C@H](NC(=O)c3cc(C(F)(F)F)ccc3Cl)CC2)c2ccccc21 [Example 3.8, Trans-2-Chloro-N-[4-(3-methyl-2-oxo-2,3-dihydro-benzoimidazol-1-ylmethyl)-cyclohexyl]-5-trifluoromethyl-benzamide]
6 |  |  | 118 nM | Cn1c(=O)n(C[C@H]2CC[C@H](NC(=O)c3cc(Cl)ccc3Cl)CC2)c2ccccc21 [Example 4.2, Trans-2,5-Dichloro-N-[4-(3-methyl-2-oxo-2,3-dihydro-benzoimidazol-1-ylmethyl)-cyclohexyl]-benzamide trifluoroacetate]
7 |  |  | 126 nM | CC1(C)C(=O)N(C[C@H]2CC[C@H](NC(=O)c3cc(Cl)ccc3Cl)CC2)c2ccccc21 [Example 5.2, Trans-2,5-Dichloro-N-[4-(3,3-dimethyl-2-oxo-2,3-dihydro-indol-1-ylmethyl)-cyclohexyl]-benzamide]

The next lines start with the compound.

Row | SMILES | IC50 ([1]; Biological data Table 2) | IC50 [2] | IC50 ([1]; Biological data Table 1)
8 | Cc1ncc(Cl)cc1C(=O)N[C@H]1CC[C@H](CN2C(=O)C(C)(F)c3ccc(Cl)cc32)CC1 (single isomer, unassigned) [Example 2.33, Trans-5-Chloro-N-[4-(-6-chloro-3-fluoro-3-methyl-2-oxo-2,3-dihydro-indol-1-ylmethyl)-cyclohexyl]-2-methyl-nicotinamide] | 44 nM | 876 nM | 
9 | Cc1cc2c(cc1C)C(C)(F)C(=O)N2C[C@H]1CC[C@H](NC(=O)c2cc(Cl)cnc2C)CC1 (single isomer, unassigned; enantiomer 1) [Example 2.54, Enantiomer 1 of Trans-5-Chloro-N-[4-(3-fluoro-3,5,6-trimethyl-2-oxo-2,3-dihydro-indol-1-ylmethyl)-cyclohexyl]-2-methyl-nicotinamide] | 59 nM | 4760 nM | 
10 | Cc1cc2c(cc1C)C(C)(F)C(=O)N2C[C@H]1CC[C@H](NC(=O)c2cc(Cl)cnc2C)CC1 (single isomer, unassigned; enantiomer 2) [Example 2.55, Enantiomer 2 of Trans-5-Chloro-N-[4-(3-fluoro-3,5,6-trimethyl-2-oxo-2,3-dihydro-indol-1-ylmethyl)-cyclohexyl]-2-methyl-nicotinamide] | 60 nM | 4530 nM | 
11 | Cc1ncc(Cl)cc1C(=O)N[C@H]1CC[C@H](CN2C(=O)C(C)(C)c3ccccc32)CC1 [Example 1.3, Trans-5-chloro-N-[4-(3,3-dimethyl-2-oxo-2,3-dihydro-indol-1-ylmethyl)-cyclohexyl]-2-methyl-icotinamide] | 48 nM | 3800 nM | 
12 | Cc1ncc(Cl)cc1C(=O)N[C@H]1CC[C@H](CN2C(=O)C3(CC3)c3cc(F)ccc32)CC1 [Example 2.6, Trans-5-chloro-N-[-4-((5′-fluoro-2′-oxospiro[cyclopropane-1,3′-indoline]-1′-yl)methyl)cyclohexyl]-2-methyl nicotinamide] | 12 nM | 811 nM | 
13 | Cc1ncc(Cl)cc1C(=O)N[C@H]1CC[C@H](CN2C(=O)C(C)(C)c3cccc(Cl)c32)CC1 [Example 2.15, Trans-5-Chloro-N-[4-(7-chloro-3,3-dimethyl-2-oxo-2,3-dihydro-indol-1-ylmethyl)-cyclohexyl]-2-methyl-nicotinamide] | 17 nM | 936 nM | 
14 | COc1cccc2c1N(C[C@H]1CC[C@H](NC(=O)c3cc(C(F)(F)F)ccc3Cl)CC1)C(=O)C2(C)C [Example 2.18, Trans-2-Chloro-N-[4-(7-methoxy-3,3-dimethyl-2-oxo-2,3-dihydro-indol-1-ylmethyl)-cyclohexyl]-5-trifluoromethyl-benzamide] | 50 nM | 1680 nM | 
15 | Cc1ncc(Cl)cc1C(=O)N[C@H]1CC[C@H](CN2C(=O)[C@@](C)(F)c3ccccc32)CC1 [Example 2.20, Trans-5-Chloro-N-[4-((S)-3-fluoro-3-methyl-2-oxo-2,3-dihydro-indol-1-ylmethyl)-cyclohexyl]-2-methyl-nicotinamide] | 62 nM | 4590 nM | 
16 | Cc1cccc2c1N(C[C@H]1CC[C@H](NC(=O)c3cc(C(F)(F)F)ccc3Cl)CC1)C(=O)C2(C)C [Example 2.23, Trans-2-Chloro-5-trifluoromethyl-N-[4-(3,3,7-trimethyl-2-oxo-2,3-dihydro-indol-1-ylmethyl)-cyclohexyl]-benzamide] | 57 nM | 2140 nM | 
17 | Cc1ncc(Cl)cc1C(=O)N[C@H]1CC[C@H](CN2C(=O)C(F)(F)c3ccc(Cl)cc32)CC1 [Example 2.26, Trans-5-Chloro-N-[4-(6-chloro-3,3-difluoro-2-oxo-2,3-dihydro-indol-1-ylmethyl)-cyclohexyl]-2-methyl-nicotinamide] | 157 nM | 3120 nM | 
18 | Cc1cccc2c1C(C)(C)C(=O)N2C[C@H]1CC[C@H](NC(=O)c2cc(Cl)cnc2C)CC1 [Example 2.27, Trans-5-Chloro-2-methyl-N-[4-(3,3,4-trimethyl-2-oxo-2,3-dihydro-indol-1-ylmethyl)-cyclohexyl]-nicotinamide] | 157 nM | 4810 nM | 
19 | COc1ccc2c(c1)N(C[C@H]1CC[C@H](NC(=O)c3cc(Cl)cnc3C)CC1)C(=O)C2(C)C [Example 2.28, Trans-5-Chloro-N-[4-(6-methoxy-3,3-dimethyl-2-oxo-2,3-dihydro-indol-1-ylmethyl)-cyclohexyl]-2-methyl-nicotinamide] | 38 nM | 3050 nM | 
